{"source": "patent US20120277316A1", "about": "“METHODS AND COMPOSITIONS FOR TREATING AND PREVENTING PARENTERAL NUTRITION ASSOCIATED LIVER DISEASE” (University of Tennesse Research Foundation a university, priority 2010, published 2012)", "assay_type_in_all_cases": "cell-based", "key": {"[1]": {"assay": "Cell viability by trypan blue staining", "settings": "human, HepG2 cells; 2 hour treatment with CDCA alone; trypan blue; read-out: viable cells", "description": "(§1) Experimental Design. HepG2 cells were plated and grown to 95% confluence for all experiments, except for fluorescent cell staining, where cells where grown to 50% confluence. Cells were treated with CDCA […] (Sigma-Aldrich), ±EPA 1-10 μM (Nu-check Prep, Elysian, Minn., United States of America), and ±DHA 10 μM (Nu-check Prep). […] Cells were treated for 0.5, 1, 1.5, 2, 4 hour for mRNA analysis by quantitative real time RT-PCR.\n(§2) Cell Viability. Cell viability was evaluated after treating cells, as described above, followed by trypsinization in order to disperse cells into a 0.2% trypan blue (Sigma-Aldrich) cell suspension mixture. After staining, 10 μL of cell suspension was placed on a hemocytometer with a glass cover slip and evaluated using an inverted microscope (25× magnification). All cells were counted and viability was accessed."}, "HepG2 cells [2]": {"tested_on": "HepG2 cells", "assay": "Nuclear staining with ethidium bromide/acridine orange", "settings": "cells treated with the substance alone, 2 hours", "description": "Nuclear staining. Cells were grown on glass inserts and once 50% confluence was achieved, cells were treated with CDCA±EPA for 2 hours. Immediately following treatment, cells were washed with phosphate buffered saline (PBS), fixed with methanol (−10° C.) for 15 minutes, then washed with PBS. Fixed cells were then stained for 5 minutes with ethidium bromide (100 μg/ml) and acridine orange (100 μg/ml) (EB/AO) dye mixture (Sigma-Aldrich) in PBS. Following staining, cells underwent 5 washes prior to being mounted on glass slides using VECTASHIELD® mounting medium and analyzed using an Olympus America Inc., IX50-FLA inverted reflected light fluorescence microscope (Lake Success, N.Y., United States of America)."}, "[3]": {"tested_on": "caspase 3/7 activity in HepG2 cells", "assay": "Apo-ONE Homogeneous Caspase-3/7 Assay, CDCA-induced apoptosis", "settings": "for caspase-3/7 attenuation: HepG2 cells, CDCA 200 μM, 12 hours, 10 μM EPA, 10 μM DHA, or 5 μM EPA+5 μM DHA", "description": "Cultured HepG2 cells were treated with 50, 100, or 200 μM CDCA in the presence and absence of 10 μM EPA, 10 μM DHA, or 5 μM EPA+5 μM DHA. Controls included cells incubated with vehicle alone (EtOH). Apoptosis was evaluated after 4, 8, 12, 18, and 24 hours using the Apo-ONE®\n(§3) Homogeneous Caspase-3/7 Assay (Promega Corporation, Madison, Wis., United States of America). Specific apoptotic mediators (Fas and TRAIL-R2) were evaluated at 0.5, 1, 1.5, 2, and 4 hrs using quantitative real-time RT-PCR.\n(§4) Experimental Design. HepG2 cells were plated and grown to 95% confluence for all experiments, except for fluorescent cell staining, where cells where grown to 50% confluence. Cells were treated with CDCA 50-200 mM (Sigma-Aldrich), ±EPA 1-10 μM (Nu-check Prep, Elysian, Minn., United States of America), and ±DHA 10 μM (Nu-check Prep). HepG2 cells were treated for 4, 8, 12, 18, 24 hours for cell viability and caspase assays. Cells were treated for 0.5, 1, 1.5, 2, 4 hour for mRNA analysis by quantitative real time RT-PCR.\nCaspase assay. Apoptosis was evaluated using the Apo-ONE® Homogeneous Caspase-3/7 Assay purchased from Promega Corporation (Madison, Wis., United States of America) and performed according to the manufacturer's instructions. HepG2 cells were treated for 4, 8, 12, 18, 24 hours followed by the addition of caspase-3/7 reagent and incubation for 4 hours in the dark on a rocking shaker at low speed. Results were read at fluorescein 485 nm/535 nm with a Victor 2, Perkin-Elmer Wallace 1420 multilabel counter (Shelton, Conn., United States of America)."}, "[4]": {"tested_on": "pro-inflammatory cytokine (IL-6) mRNA in HepG2 cells", "assay": "IL-6 mRNA by quantitative RT-PCR", "settings": "CDCA 200 uM, 2 hour incubation", "description": "Quantitative RT-PCR. Total RNA was isolated from confluent cultures according to manufacturer's instructions with TRIzol™ reagent (Invitrogen, Carlsbad, Calif., United States of America). First-strand cDNAs were synthesized from 2 μg of total RNA in a 21 μl reaction volume using the SuperScript™ First-Strand Synthesis System for RT-PCR (Invitrogen) in accordance with the manufacturer's instructions. Quantitative PCR was performed in triplicate using the Model 7500 Sequence Detection System (Applied Biosystems, Foster City, Calif., United States of America). Independent PCRs were performed using the same cDNA for both the gene of interest and the 18S rRNA, using the SYBR Green PCR Master Mix (Applied Biosystems). Specific primers were designed for the genes of interest (Fas, TRAIL-R2, and IL-6). […] The change in fluorescence of SYBR Green in every cycle was monitored by the system software, and the threshold cycle (CT) above the background for each reaction was calculated. […] The mRNA expression level relative to the calibrator was expressed as 2^−ΔΔCT. […]\nIL6 mRNA levels were measured by quantitative RT-PCR after a 2 hour incubation in a HepG2 cells. […] Statistical significance was determined using an ANOVA with Tukey's LSD. […] Statistical significance was determined using an ANOVA with Tukey's LSD."}, "Fas mRNA in HepG2 cells": {"tested_on": "Fas mRNA in HepG2 cells", "assay": "Fas mRNA by quantitative real-time RT-PCR", "settings": "HepG2 cells incubated with CDCA 200 μM alone; 0.5 hours; relative to vehicle control", "description": "as §3\nas §4, with “Cells were treated with CDCA 50-200 mM (Sigma-Aldrich), ±EPA 1-10 μM (Nu-check Prep, Elysian, Minn., United States of America), and ±DHA 10 μM (Nu-check Prep).” left out\nQuantitative RT-PCR. Total RNA was isolated from confluent cultures according to manufacturer's instructions with TRIzol™ reagent (Invitrogen, Carlsbad, Calif., United States of America). First-strand cDNAs were synthesized from 2 μg of total RNA in a 21 μl reaction volume using the SuperScript™ First-Strand Synthesis System for RT-PCR (Invitrogen) in accordance with the manufacturer's instructions. Quantitative PCR was performed in triplicate using the Model 7500 Sequence Detection System (Applied Biosystems, Foster City, Calif., United States of America). […] The change in fluorescence of SYBR Green in every cycle was monitored by the system software, and the threshold cycle (CT) above the background for each reaction was calculated. […] The mRNA expression level relative to the calibrator was expressed as 2^−ΔΔCT."}, "HepG2 cells [5]": {"tested_on": "HepG2 cells", "assay": "Cell viability by trypan blue staining", "description": "as §1, §2"}}}
{"compound": "C[C@H](CCC(=O)O)[C@H]1CC[C@H]2[C@@H]3[C@H](O)C[C@@H]4C[C@H](O)CC[C@]4(C)[C@H]3CC[C@]12C", "note": "[CDCA, chenodeoxycholic acid]", "values": [{"measurement": "viability at 2 h", "setting": "[1]", "result": 88, "unit": "%"}, {"measurement": "EB/AO nuclear staining appearance", "setting": "HepG2 cells [2]", "result": "cellular integrity is lost"}, {"measurement": "apoptotic effect of CDCA (caspase 3/7 activity)", "setting": "[3]; CDCA 50-200 μM, across all time points (4-24 hours)", "result": "dose-dependent"}, {"measurement": "time of peak caspase activity", "setting": "[3]; HepG2 cells treated with 200 μM CDCA", "result": 12, "unit": "h"}, {"measurement": "pro-inflammatory cytokine (IL-6) mRNA expression", "setting": "[4]", "result": "significantly increased"}, {"measurement": "increase in Fas mRNA levels", "setting": "Fas mRNA in HepG2 cells", "result": 4.7, "unit": "fold"}]}
{"compound": "CC/C=C\\C/C=C\\C/C=C\\C/C=C\\C/C=C\\C/C=C\\CCC(=O)O", "note": "[DHA, docosahexaenoic acid]", "values": [{"measurement": "caspase-3/7 attenuation", "setting": "[3]", "result": 9, "unit": "%"}]}
{"compound": "CC/C=C\\C/C=C\\C/C=C\\C/C=C\\C/C=C\\CCCC(=O)O", "note": "[EPA, eicosapentaenoic acid]", "values": [{"measurement": "viable cells", "setting": "HepG2 cells [5]; 2 hour treatment with CDCA and EPA, trypan blue", "result": 100, "unit": "%"}, {"measurement": "total cell count relative to cells exposed to medium alone", "setting": "HepG2 cells [5]; treatment with CDCA and EPA", "result": 75, "unit": "%"}, {"measurement": "caspase-3/7 attenuation", "setting": "[3]", "result": 22, "unit": "%"}]}
